Data taken from US10597388B2, “Pyridazinone herbicides” (FMC CORPORATION, priority 2014, dated 2020).

Experiments:
Experiment in all cases: Test E greenhouse herbicide test, pre- and postemergence
Assay type in all cases: in vivo
Conditions in all cases: Postemergence
[1] = test system: arrowleaf sida (Sida rhombifolia)
Text: (§1) Seeds of plant species selected from corn (Zea mays), soybean (Glycine max), velvetleaf (Abutilon theophrasti), lambsquarters (Chenopodium album), wild poinsettia (Euphorbia heterophylla), pigweed, palmer (palmer pigweed, Amaranthus palmeri), waterhemp (common waterhemp, Amaranthus rudis), surinam grass (Brachiaria decumbens), crabgrass, large (large crabgrass, Digitaria sanguinalis), crabgrass, Brazilian (Brazilian crabgrass, Digitaria horizontalis), panicum, fall (fall panicum, Panicum dichotomiflorum), foxtail, giant (giant foxtail, Setaria faberii), foxtail, green (green foxtail, Setaria viridis), goosegrass (Eleusine indica), johnsongrass (Sorghum halepense), ragweed (common ragweed, Ambrosia elatior), barnyardgrass (Echinochloa crus-galli), sandbur (southem sandbur, Cenchrus echinatus), arrowleaf sida (Sida rhombifolia), Italian ryegrass (Lolium multiflorum), dayflower (Virginia (VA) dayflower, Commelina virginica), field bindweed (Convolvulus arvensis), momingglory (Ipomoea coccinea), nightshade (eastern black nightshade, Solanum ptycanthum), kochia (Kochia scoparia), nutsedge, yellow (yellow nutsedge, Cyperus esculentus), horseweed (Conyza canadensis), and beggarticks (hairy beggarticks, Bidens pilosa), were planted into a silt loam soil and treated preemergence with test chemicals formulated in a non-phytotoxic solvent mixture which included a surfactant.
(§2) At the same time, plants from these crop and weed species and also waterhemp_RES1, (ALS & Triazine resistant common waterhemp, Amaranthus rudis), and waterhemp_RES2, (ALS & HPPD resistant common waterhemp, Amaranthus rudis) were planted in pots containing Redi-Earth® planting medium (Scotts Company, 14111 Scottslawn Road, Marysville, Ohio 43041) comprising spaghnum peat moss, vermiculite, wetting agent and starter nutrients were treated with postemergence applications of test chemicals formulated in the same manner. Plants ranged in height from 2 to 18 cm for postemergence treatments (1- to 4-leaf stage). Treated plants and controls were maintained in a greenhouse for 14 to 21 d, after which time all species were compared to controls and visually evaluated. Plant response ratings, summarized in Table E, are based on a scale of 0 to 100 where 0 is no effect and 100 is complete control. A dash (-) response means no test result.

[2] = test system: crabgrass, Brazilian (Brazilian crabgrass, Digitaria horizontalis)
Text: as §1, §2

[3] = test system: corn (Zea mays)
Text: as §1, §2

[4] = test system: barnyardgrass (Echinochloa crus-galli)
Text: as §1, §2

[5] = test system: kochia (Kochia scoparia)
Text: as §1, §2

[6] = test system: panicum, fall (fall panicum, Panicum dichotomiflorum)
Text: as §1, §2

[7] = test system: horseweed (Conyza canadensis)
Text: as §1, §2

[8] = test system: sandbur (southem sandbur, Cenchrus echinatus)
Text: as §1, §2

[9] = test system: Italian ryegrass (Lolium multiflorum)
Text: as §1, §2

[10] = 62 g ai/ha, scale 0 to 100 (0 no effect, 100 complete control)
[11] = 125 g ai/ha, scale 0 to 100 (0 no effect, 100 complete control)
[12] = 250 g ai/ha, scale 0 to 100 (0 no effect, 100 complete control)
[13] = 31 g ai/ha, visual, scale 0 no effect to 100 complete control
[14] = 16 g ai/ha, visual, scale 0 no effect to 100 complete control

| Structure (SMILES) | Plant response rating, Arrowleaf Sida [1, 10] | Plant response rating, Arrowleaf Sida [1, 11] | Plant response rating, Arrowleaf Sida [1, 13] | Plant response rating, Crabgrass, Brazil [2, 10] | Plant response rating, Crabgrass, Brazil [2, 11] | Plant response rating, Crabgrass, Brazil [2, 13] | Plant response rating, Corn [3, 10] | Plant response rating, Corn [3, 11] | Plant response rating, Corn [3, 13] | Plant response rating, Barnyardgrass [4, 10] | Plant response rating, Barnyardgrass [4, 11] | Plant response rating, Barnyardgrass [4, 13] | Plant response rating, Kochia [5, 10] | Plant response rating, Kochia [5, 11] | Plant response rating, Kochia [5, 13] | Plant response rating, Panicum, Fall [6, 10] | Plant response rating, Panicum, Fall [6, 11] | Plant response rating, Panicum, Fall [6, 13] | Plant response rating, Horseweed [7, 10] | Plant response rating, Horseweed [7, 11] | further results |
| --- | --- | --- | --- | --- | --- | --- | --- | --- | --- | --- | --- | --- | --- | --- | --- | --- | --- | --- | --- | --- | --- |
| CCC(=O)Oc1c(C)nn(C)c(=O)c1-c1c(C)sc2ccc(C)cc12 [Compound 42] | 60 | 70 | 20 | 35 | 40 | 20 | 15 | 15 | 10 | 30 | 30 | 20 | 85 | 95 | 75 | 50 | 80 | 60 | 75 | 75 | Plant response rating, Arrowleaf Sida [1, 12]: 80; Plant response rating, Crabgrass, Brazil [2, 12]: 50; Plant response rating, Corn [3, 12]: 20; Plant response rating, Barnyardgrass [4, 12]: 35; Plant response rating, Kochia [5, 12]: 98; Plant response rating, Panicum, Fall [6, 12]: 95; Plant response rating, Horseweed [7, 12]: 85; Plant response rating, Horseweed [7, 13]: 75; Plant response rating, Sandbur [8, 10]: 50; Plant response rating, Sandbur [8, 11]: 60; Plant response rating, Sandbur [8, 12]: 60; Plant response rating, Sandbur [8, 13]: 35; Plant response rating, Ryegrass, Italian [9, 10]: 70; Plant response rating, Ryegrass, Italian [9, 11]: 85; Plant response rating, Ryegrass, Italian [9, 12]: 90; Plant response rating, Ryegrass, Italian [9, 13]: 50 |
| CC(=O)Oc1c(C)nn(C)c(=O)c1-c1ccc(F)c2ccccc12 [Compound 90] | 90 | 90 | 80 | 50 | 70 | 55 | 5 | 0 | 0 | 40 | 50 | 30 | 95 | 100 | 90 | 60 | 70 | 60 | 75 | 70 | Plant response rating, Arrowleaf Sida [1, 14]: 70; Plant response rating, Crabgrass, Brazil [2, 14]: 50; Plant response rating, Corn [3, 14]: 5; Plant response rating, Barnyardgrass [4, 14]: 30; Plant response rating, Kochia [5, 14]: 90; Plant response rating, Panicum, Fall [6, 14]: 40; Plant response rating, Horseweed [7, 14]: 50; Plant response rating, Horseweed [7, 13]: 70; Plant response rating, Sandbur [8, 11]: 50; Plant response rating, Sandbur [8, 14]: 40; Plant response rating, Sandbur [8, 13]: 40; Plant response rating, Ryegrass, Italian [9, 10]: 85; Plant response rating, Ryegrass, Italian [9, 11]: 85; Plant response rating, Ryegrass, Italian [9, 14]: 75; Plant response rating, Ryegrass, Italian [9, 13]: 80 |
| COc1nn(C)c(=O)c(-c2c(C)sc3ccc(Cl)cc23)c1O [Compound 100] | 60 | 70 | 50 | 50 | 40 | 25 | 5 | 0 | 0 | 40 | 30 | 30 | 80 | 80 | 60 | 50 | 70 | 30 | 70 | 75 | Plant response rating, Arrowleaf Sida [1, 12]: 75; Plant response rating, Crabgrass, Brazil [2, 12]: 50; Plant response rating, Corn [3, 12]: 0; Plant response rating, Barnyardgrass [4, 12]: 50; Plant response rating, Kochia [5, 12]: 100; Plant response rating, Panicum, Fall [6, 12]: 80; Plant response rating, Horseweed [7, 12]: 80; Plant response rating, Horseweed [7, 13]: 35; Plant response rating, Sandbur [8, 11]: 40; Plant response rating, Sandbur [8, 12]: 50; Plant response rating, Sandbur [8, 13]: 20; Plant response rating, Ryegrass, Italian [9, 10]: 60; Plant response rating, Ryegrass, Italian [9, 11]: 70; Plant response rating, Ryegrass, Italian [9, 12]: 85; Plant response rating, Ryegrass, Italian [9, 13]: 50 |
| CSCC(=O)Oc1c(C)nn(C)c(=O)c1-c1cccc2ccccc12 [Compound 171] | 80 | 90 | 80 | 50 | 50 | 40 | 0 | 0 | 0 | 45 | 50 | 40 | 95 | 100 | 90 | 50 | 60 | 40 | 60 | 70 | Plant response rating, Arrowleaf Sida [1, 12]: 95; Plant response rating, Crabgrass, Brazil [2, 12]: 60; Plant response rating, Corn [3, 12]: 0; Plant response rating, Barnyardgrass [4, 12]: 50; Plant response rating, Kochia [5, 12]: 100; Plant response rating, Panicum, Fall [6, 12]: 75; Plant response rating, Horseweed [7, 12]: 60; Plant response rating, Horseweed [7, 13]: 50; Plant response rating, Sandbur [8, 11]: 50; Plant response rating, Sandbur [8, 12]: 60; Plant response rating, Sandbur [8, 13]: 30; Plant response rating, Ryegrass, Italian [9, 10]: 75; Plant response rating, Ryegrass, Italian [9, 11]: 85; Plant response rating, Ryegrass, Italian [9, 12]: 90; Plant response rating, Ryegrass, Italian [9, 13]: 65 |
